Structures can show the parent of a compound that is named as a salt. Where two headings read alike, the source gives them in different places.

Data set [1] in a line: apparent dissociation constant of putative Ca*ligand complex from potentiometric Ca^2+ activity. The settings on record: 20 mM Hepes, pH 7.0 to 7.6, dilutions with 0.15 mM of NaCl, average of n determinations; for Kd: read-out: kd ± S.D. It is filed as physicochemical. The protocol: Bovine plasma deficient in vitamin K dependent coagulation factors and thromboplastin from rabbit brain were the corresponding components from PK-reagent GHI 129 detailed above. Ca^2+ activity and pH in plasma were determined potentiometrically with an ICA 2 (Radiometer, Copenhagen, Denmark) apparatus.
In order to identify compounds that could function as buffers for Ca^2+ at physiological levels, i.e. at about 1.3 mM of Ca^2+, water soluble compounds, either with reported dissociation constants in the range of 0.5 to 5 mM or otherwise appearing interesting, were experimentally investigated. Below, these compounds are referred to as Ca^2+ ligands or simply ligands. Experiments described below were performed to deduce the apparent dissociation constants under physiological like conditions and at ligand concentrations meaningful for Ca^2+ buffering.
Solution of 200 mM of ligand containing 20 mM of Hepes was adjusted to pH 7.4 and mixed with an equal volume of 100 mM of CaCl2 solution. These mixtures were diluted 1:2, 1:4, 1:8 and 1:16 with […]. […] From the experimentally determined Ca^2+ activity and the stoikiometric levels of ligand and Ca^2+, the apparent dissociation constant for a putative Ca*ligand complex was determined as the average of all available data.

For data set [2] the following is noted: cited from earlier work.
A short description of data set [3]: addition of CaCl2 solution to anti-coagulant solutions to reach physiological Ca^2+. It is filed as physicochemical. To be noted: solutions of the Ca^2+ binding substance plus CaCl2. The text has this:
This gave rise to the idea that these substances could perform as anticoagulants also at near physiological levels of Ca^2+ activity. […] This was possible with iso-citrate but not with citrate. […] The following therefore only describes experiments with iso-citrate.

Data set [4] has as its system prothrombin complex (coagulation factors VII, X and II). In words: coagulation time in prothrombin complex (PK) system with added citrate or iso-citrate. It is filed as biochemical. The protocol:
Activated partial thromboplastin time (APTT), prothrombin time (PT), prothrombin complex, (PK), assay, factor VIII and fibrin D-dimer were determined in compliance with manufacturers recommendations using the following reagents; PTT Automate, Diagnostica Stago, Asnieres-sur-Seine, France; Thromborel® S, Behring Diagnostics GmbH, Marburg, Germany; PK-reagent GHI 129, Global Hemostasis Institute MGR, Linköping, Sweden; and Coamatic® Factor VIII, Chromogenix, Mölndal, Sweden. The tests were performed on an Automated Coagulation Laboratory instrument, ACL, model 810 (Instrumentation Laboratory, Milan, Italy).
Coagulation analysis of blood and blood plasma are performed in many different ways. Most such analysis have the following in common. […] This Ca^2+ buffer capacity was determined in a system composed of sample, bovine plasma deficient in vitamin K dependent coagulation factors and rabbit brain thromboplastin. […] For each level of addition, the calcium ion buffering capacity of the analytical system was determined. The buffer capacity was determined at Ca^2+ activity in the range of 1 to 4 mM.
The assay response of the system described in Example 5 is investigated. […] The coagulation time is recorded. And after compacting of the coagulum by centrifugation for 3 minutes at 10,000×g, the Ca2+ activity is determined. […]

The mark [5] stands for this setting: in 0.1 M KNO3, read-out: published estimate.
Setting [6] is: prior art, at physiological conditions.
[7] abbreviates: in 0.1 M NaClO4, read-out: published estimate.

As for `Nc1nc(N)c2[nH]cnc2n1` [2,6-diaminopurine], the Kd in data set [1] is 50 ± 24 mM; in data set [2] (setting [5]), 1.6 mM.

`O=C(O)CN(CCN(CC(=O)O)CC(=O)O)CC(=O)O` [EDTA]: the “apparent dissociation constant of Ca^2+ complexes” value in data set [2] (setting [6]) is reported as “considerably tighter”.

Take `Nc1ncnc2nc[nH]c12` [adenine]: the Kd was 70 ± 40 mM in data set [1] and 1.1 mM in data set [2] (setting [5]).

Consider `O=C(O)CC(O)(CC(=O)O)C(=O)O` [citrate, Tri-sodium citrate], for which the Kd in data set [1] was 0.5 ± 0.05 mM; in data set [2] (medium not given, read-out: published estimate), 0.58 mM; in data set [2] (prior art, at physiological conditions, read-out: apparent dissociation constant of Ca^2+ complexes), around 0.4 mM. In addition, in data set [3], the “making solutions with physiological levels of Ca^2+ by adding CaCl2 solution” value was “formed precipitates”. Besides, the “inhibition of coagulation (coagulation time) in PK system” value in data set [4] (5, 10 or 20 mM added, Ca^2+ activity 0.7 to 9 mM) is given as “inhibit coagulation at all Ca^2+ activity levels”. For the same compound, the “inhibitory effect on coagulation time per molar unit, citrate versus iso-citrate” value in data set [4] (Ca^2+ activity of 1.5, FIG. 8) is on record as “about twice as inhibitory as iso-citrate per molar unit”.

With `CC(C)(C(=O)O)C(=O)O` [dimethylmalonate, dimethylmalonic acid], the Kd in data set [2] (setting [7]) was 30.2 mM.

`O=C(O)CNCC(=O)O` [iminodiacetate]: the Kd in data set [1] is 29 ± 12 mM; in data set [2] (in 1 M KNO3, read-out: published estimate), 8.1 mM.

As for `CC(C(=O)O)C(=O)O` [methylmalonate, methylmalonic acid], the Kd was 22 ± 3 mM in data set [1] and 22.4 mM in data set [2] (setting [7]).

As for `O=C(O)C(=O)O` [oxalate, oxalic acid], the “kd ± S.D.” value in data set [1] is listed as “oxalate (precipitated)”. Further, the Kd in data set [2] (setting [5]) is 5 mM. The “apparent dissociation constant of Ca^2+ complexes” value in data set [2] (setting [6]) is “considerably tighter”.

As for `O=C(O)c1ccccc1C(=O)O` [phthalate, phthalic acid], the Kd is 26 ± 73 mM in data set [1] and 3.9 mM in data set [2] (in 0.1 M KCl, read-out: published estimate).

In the case of `O=C(O)/C=C(\CC(=O)O)C(=O)O` [trans-aconitate, trans-aconitic acid], the Kd in data set [1] amounted to 29 ± 53 mM.

Consider `O=C(O)CC(CC(=O)O)C(=O)O` [tricarballylate, tricarballylic acid], for which, in data set [1], the Kd was 22 ± 53 mM.

Values taken from patent publication US6368785B1 (Global Hemostasis Institute MGR AB, priority 1997, dated 2002).
